# Read-outs that look alike come from different tables or passages of the source.
# Test: PK after subcutaneous administration of solutions in dogs
# Assay type: in vivo, Beagle dog
# Conditions: male, beagle, dog, plasma, sc, 12 mg/kg; for concentration at 336 h / concentration at 504 h / concentration at 672 h / concentration at 840 h / concentration at 1008 h / concentration at 1344 h / concentration at 1680 h / concentration at 1 h / concentration at 3 h / concentration at 8 h / concentration at 24 h / concentration at 48 h / concentration at 72 h / concentration at 96 h / concentration at 168 h: SC 12 mg/kg, 400 mg/mL in 15% water/85% PEG 300; for AUC(0-t): male beagle dog, single SC 12 mg/kg, 400 mg/mL in 85% PEG300 and 15% water, mean ± SD
# Experimental: Formulations containing the compound of Formula (Ia) were prepared as aqueous solutions or oral formulations and administered subcutaneously to rats, dogs, cynomolgus monkey, and/or rhesus monkey.
# A solution of the compound of Formula (Ia) in 10% ethanol, 13% water, and 77% PEG 200 (400 mg/mL) was prepared. The solution was administered subcutaneously to dogs at a dose of 12 mg/kg and rats at a dose of 50 mg/kg and the pharmacokinetic (PK) profile was determined. […] In both species, plasma concentrations of the compound of Formula (Ia) were maintained above the target trough concentration of 20 nM (corresponding to an IQ of 5) for at least 84 days (12 weeks).
# A solution of the compound of Formula (Ia) in 15% water and 85.0 PEG 300 (400 mg/mL) was prepared. The solution was administered subcutaneously to male beagle dogs at a dose level of 12 mg/kg and dose volume of […] and the pharmacokinetic (PK) profile was determined.
# A solution of the compound of Formula (a) sodium salt in water and 300 (300 mg/mL) was prepared that contained 22.6% water/50% PEG 300/1.1% NaOH/26.3% Formula (Ia). The solution was administered subcutaneously to male beagle dogs at a dose level of 12 mg/kg and dose volume of […] and the pharmacokinetic (PK) profile was determined.
# A 300 mg/ml solution of a compound of Formula (Ia) having 9.8 w/w % water, 65.0 w/w % PEG 300, and 25.2 w/w % of the compound of Formula (Ia) was prepared. The solution was administered subcutaneously to rats at a dose of 50 mg/kg and to dogs at a dose of 12 mg/kg and the pharmacokinetic (PK) profile was determined. […] In the rat, plasma concentrations of the compound of Formula (Ia) were maintained above the target trough concentration of 20 nM for at least 168 days (24 weeks). In the dog, plasma concentrations of the compound of Formula (Ia) were maintained above the target trough concentration of 20 nM for at least 84 days (12 weeks).
# (§1) A 150 mg/ml solution of a compound of Formula (Ia) having 27.92 w/w % water, 58.04 w/w % PEG 300, 13.47 w/w % of a compound of Formula (Ia), and 1.1 w/w % NaOH was prepared. The solution was administered subcutaneously to rats at a dose of 50 mg/kg and to dogs at a dose of 12 mg/kg and the pharmacokinetic (PK) profile was determined. […] In the rat, plasma concentrations of the compound of Formula (Ia) were maintained above the target trough concentration of 20 nM for at least 126 days (18 weeks). In the dog, plasma concentrations of the compound of Formula (Ia) were maintained above the target trough concentration of 20 nM for at least 56 days (8 weeks).
# as §1, with “300” for “150”, “23.2” for “27.92”, “50.0” for “58.04”, “25.7” for “13.47”
# A 50 mg/ml solution of a compound of Formula (Ia) having 30.07 w/w % water, 64.40 w/w % PEG 300, 4.68 w/w % of a sodium salt of the compound of Formula (Ia), and 0.85 w/w % poloxamer 188 was prepared. The solution was administered subcutaneously to rats at a dose of 50 mg/kg and to dogs at a dose of 6 mg/kg and the pharmacokinetic (PK) profile was determined. […] In the rat, plasma concentrations of the compound of Formula (Ia) were maintained above the target trough concentration of 20 nM for at least 28 days (4 weeks). In the dog, plasma concentrations of the compound of Formula (Ia) were maintained above the target trough concentration of 20 nM for at least 14 days (2 weeks). […]
smiles,measurement,setting,value
"CC(C)(C#Cc1ccc(-c2ccc(Cl)c3c(NS(C)(=O)=O)nn(CC(F)(F)F)c23)c([C@H](Cc2cc(F)cc(F)c2)NC(=O)Cn2nc(C(F)(F)F)c3c2C(F)(F)[C@@H]2C[C@H]32)n1)S(C)(=O)=O [Formula (Ia), N—((S)-1-(3-(4-chloro-3-(methylsulfonamido)-1-(2,2,2-trifluoroethyl)-1H-indazol-7-yl)-6-(3-methyl-3-(methylsulfonyl)but-1-yn-1-yl)pyridin-2-yl)-2-(3,5-difluorophenyl)ethyl)-2-((3bS,4aR)-5,5-difluoro-3-(trifluoromethyl)-3b,4,4a,5-tetrahydro-1H-cyclopropa[3,4]cyclopenta[1,2-c]pyrazol-1-yl)acetamide]",concentration at 336 h,dog #1,135 nM
same,concentration at 504 h,dog #1,172 nM
same,concentration at 672 h,dog #1,93.1 nM
same,concentration at 840 h,dog #1,150 nM
same,concentration at 1008 h,dog #1,80.2 nM
same,concentration at 1344 h,dog #1,42.7 nM
same,concentration at 1680 h,dog #1,69.5 nM
same,concentration at 1 h,dog #2,1.2 nM
same,concentration at 3 h,dog #2,2.6 nM
same,concentration at 8 h,dog #2,15.5 nM
same,concentration at 24 h,dog #2,27.8 nM
same,concentration at 48 h,dog #2,60.6 nM
same,concentration at 72 h,dog #2,37.8 nM
same,concentration at 96 h,dog #2,28.8 nM
same,concentration at 168 h,dog #2,43.1 nM
same,concentration at 336 h,dog #2,64.7 nM
same,concentration at 504 h,dog #2,114 nM
same,concentration at 672 h,dog #2,81.5 nM
same,concentration at 840 h,dog #2,110 nM
same,concentration at 1008 h,dog #2,70.7 nM
same,concentration at 1344 h,dog #2,41.2 nM
same,concentration at 1680 h,dog #2,42.2 nM
same,concentration at 1 h,dog #3,1.2 nM
same,concentration at 3 h,dog #3,2.3 nM
same,concentration at 8 h,dog #3,9.2 nM
same,concentration at 24 h,dog #3,16.8 nM
same,concentration at 48 h,dog #3,13.2 nM
same,concentration at 72 h,dog #3,13.2 nM
same,concentration at 96 h,dog #3,10.4 nM
same,concentration at 168 h,dog #3,30.8 nM
same,concentration at 336 h,dog #3,53 nM
same,concentration at 504 h,dog #3,82.9 nM
same,concentration at 672 h,dog #3,56.9 nM
same,concentration at 840 h,dog #3,107 nM
same,concentration at 1008 h,dog #3,54.1 nM
same,concentration at 1344 h,dog #3,30.2 nM
same,concentration at 1680 h,dog #3,28.5 nM
same,concentration at 3 h,"dog mean, n=3",2 nM
same,concentration at 8 h,"dog mean, n=3",11.8 nM
same,concentration at 24 h,"dog mean, n=3",21.5 nM
same,concentration at 48 h,"dog mean, n=3",42.8 nM
same,concentration at 72 h,"dog mean, n=3",37.9 nM
same,concentration at 96 h,"dog mean, n=3",32.7 nM
same,concentration at 168 h,"dog mean, n=3",48.6 nM
same,concentration at 336 h,"dog mean, n=3",84.2 nM
same,concentration at 504 h,"dog mean, n=3",123 nM
same,concentration at 672 h,"dog mean, n=3",77.2 nM
same,concentration at 840 h,"dog mean, n=3",122 nM
same,concentration at 1008 h,"dog mean, n=3",68.3 nM
same,concentration at 1344 h,"dog mean, n=3",38 nM
same,concentration at 1680 h,"dog mean, n=3",46.7 nM
same,concentration at 1 h,dog mean,1.2 nM
same,AUC(0-t),"n=3, read-out: AUC0-24h",0.304 ± 0.082 µM·h
same,AUC(0-t),"n=3, read-out: AUC0-48h",1.08 ± 0.44 µM·h
same,AUC(0-t),"n=3, read-out: AUC0-72h",2.04 ± 0.98 µM·h
same,AUC(0-t),"n=3, read-out: AUC0-168h",5.82 ± 3.04 µM·h
same,AUC(0-t),"n=3, read-out: AUC0-672h",51.2 ± 21 µM·h
same,AUC(0-t),"n=3, read-out: AUC0-1344h",102 ± 30 µM·h
